In the NIST ThermoML archive (doi:10.1016/j.jct.2012.03.003):

Assay: xn = mol fraction of the nth substance listed
Conditions: Liquid, Vibrating tube method

COc1cc2c(cc1O)CC1c3c(cc(O)c(OC)c3-2)CCN1C (stereo not given) [boldine] + CCCO
Conditions | mass density [kg/m3]
343 K, 1000 kPa, x1 = 0.0018 | 765.31
343 K, 2000 kPa, x1 = 0.0018 | 766.28
343 K, 3000 kPa, x1 = 0.0018 | 767.25
343 K, 4000 kPa, x1 = 0.0018 | 768.23
343 K, 5000 kPa, x1 = 0.0018 | 769.21
343 K, 6000 kPa, x1 = 0.0018 | 770.18
343 K, 7000 kPa, x1 = 0.0018 | 771.15
343 K, 8000 kPa, x1 = 0.0018 | 772.11
343 K, 9000 kPa, x1 = 0.0018 | 773.07
343 K, 10000 kPa, x1 = 0.0018 | 774.02
343 K, 11000 kPa, x1 = 0.0018 | 774.96
343 K, 12000 kPa, x1 = 0.0018 | 775.89
343 K, 13000 kPa, x1 = 0.0018 | 776.81
343 K, 14000 kPa, x1 = 0.0018 | 777.73
343 K, 15000 kPa, x1 = 0.0018 | 778.63
343 K, 16000 kPa, x1 = 0.0018 | 779.51
343 K, 17000 kPa, x1 = 0.0018 | 780.4
343 K, 18000 kPa, x1 = 0.0018 | 781.25
343 K, 19000 kPa, x1 = 0.0018 | 782.1
343 K, 20000 kPa, x1 = 0.0018 | 782.93
343.01 K, 1000 kPa, x1 = 0.0077 | 775.45
343.01 K, 1000 kPa, x1 = 0.0142 | 786.8
343.01 K, 2000 kPa, x1 = 0.0077 | 776.42
343.01 K, 2000 kPa, x1 = 0.0142 | 787.75
343.01 K, 3000 kPa, x1 = 0.0077 | 777.38
343.01 K, 3000 kPa, x1 = 0.0142 | 788.7
343.01 K, 4000 kPa, x1 = 0.0077 | 778.34
343.01 K, 4000 kPa, x1 = 0.0142 | 789.64
343.01 K, 5000 kPa, x1 = 0.0077 | 779.31
343.01 K, 5000 kPa, x1 = 0.0142 | 790.58
343.01 K, 6000 kPa, x1 = 0.0077 | 780.26
343.01 K, 6000 kPa, x1 = 0.0142 | 791.54
343.01 K, 7000 kPa, x1 = 0.0077 | 781.23
343.01 K, 7000 kPa, x1 = 0.0142 | 792.46
343.01 K, 8000 kPa, x1 = 0.0077 | 782.18
343.01 K, 8000 kPa, x1 = 0.0142 | 793.4
343.01 K, 9000 kPa, x1 = 0.0077 | 783.12
343.01 K, 9000 kPa, x1 = 0.0142 | 794.32
343.01 K, 10000 kPa, x1 = 0.0077 | 784.05
343.01 K, 10000 kPa, x1 = 0.0142 | 795.24
343.01 K, 11000 kPa, x1 = 0.0077 | 784.98
343.01 K, 11000 kPa, x1 = 0.0142 | 796.17
343.01 K, 12000 kPa, x1 = 0.0077 | 785.91
343.01 K, 12000 kPa, x1 = 0.0142 | 797.07
343.01 K, 13000 kPa, x1 = 0.0077 | 786.82
343.01 K, 13000 kPa, x1 = 0.0142 | 797.96
343.01 K, 14000 kPa, x1 = 0.0077 | 787.72
343.01 K, 14000 kPa, x1 = 0.0142 | 798.86
343.01 K, 15000 kPa, x1 = 0.0077 | 788.61
343.01 K, 15000 kPa, x1 = 0.0142 | 799.72
343.01 K, 16000 kPa, x1 = 0.0077 | 789.48
343.01 K, 16000 kPa, x1 = 0.0142 | 800.59
343.01 K, 17000 kPa, x1 = 0.0077 | 790.35
343.01 K, 17000 kPa, x1 = 0.0142 | 801.44
343.01 K, 18000 kPa, x1 = 0.0077 | 791.2
343.01 K, 18000 kPa, x1 = 0.0142 | 802.3
343.01 K, 19000 kPa, x1 = 0.0077 | 792.04
343.01 K, 19000 kPa, x1 = 0.0142 | 803.11
343.01 K, 20000 kPa, x1 = 0.0077 | 792.86
343.01 K, 20000 kPa, x1 = 0.0142 | 803.92
343.02 K, 1000 kPa, x1 = 0.0112 | 782.08
343.02 K, 2000 kPa, x1 = 0.0112 | 783.03
343.02 K, 3000 kPa, x1 = 0.0112 | 783.98
343.02 K, 4000 kPa, x1 = 0.0112 | 784.93
343.02 K, 5000 kPa, x1 = 0.0112 | 785.88
343.02 K, 6000 kPa, x1 = 0.0112 | 786.83
343.02 K, 7000 kPa, x1 = 0.0112 | 787.77
343.02 K, 8000 kPa, x1 = 0.0112 | 788.71
343.02 K, 9000 kPa, x1 = 0.0112 | 789.64
343.02 K, 10000 kPa, x1 = 0.0112 | 790.57
343.02 K, 11000 kPa, x1 = 0.0112 | 791.49
343.02 K, 12000 kPa, x1 = 0.0112 | 792.4
343.02 K, 13000 kPa, x1 = 0.0112 | 793.29
343.02 K, 14000 kPa, x1 = 0.0112 | 794.19
343.02 K, 15000 kPa, x1 = 0.0112 | 795.06
343.02 K, 16000 kPa, x1 = 0.0112 | 795.93
343.02 K, 17000 kPa, x1 = 0.0112 | 796.79
343.02 K, 18000 kPa, x1 = 0.0112 | 797.62
343.02 K, 19000 kPa, x1 = 0.0112 | 798.46
343.02 K, 20000 kPa, x1 = 0.0112 | 799.28
343.04 K, 1000 kPa, x1 = 0.0046 | 771.67
343.04 K, 2000 kPa, x1 = 0.0046 | 772.63
343.04 K, 3000 kPa, x1 = 0.0046 | 773.6
343.04 K, 4000 kPa, x1 = 0.0046 | 774.56
343.04 K, 5000 kPa, x1 = 0.0046 | 775.44
343.04 K, 6000 kPa, x1 = 0.0046 | 776.45
343.04 K, 7000 kPa, x1 = 0.0046 | 777.41
343.04 K, 8000 kPa, x1 = 0.0046 | 778.35
343.04 K, 9000 kPa, x1 = 0.0046 | 779.29
343.04 K, 10000 kPa, x1 = 0.0046 | 780.23
343.04 K, 11000 kPa, x1 = 0.0046 | 781.16
343.04 K, 12000 kPa, x1 = 0.0046 | 782.09
343.04 K, 13000 kPa, x1 = 0.0046 | 782.98
343.04 K, 14000 kPa, x1 = 0.0046 | 783.89
343.04 K, 15000 kPa, x1 = 0.0046 | 784.78
343.04 K, 16000 kPa, x1 = 0.0046 | 785.65
343.04 K, 17000 kPa, x1 = 0.0046 | 786.52
343.04 K, 18000 kPa, x1 = 0.0046 | 787.37
343.04 K, 19000 kPa, x1 = 0.0046 | 788.26
343.04 K, 20000 kPa, x1 = 0.0046 | 789.03
352.94 K, 1000 kPa, x1 = 0.0018 | 756.19
352.94 K, 1000 kPa, x1 = 0.0112 | 772.97
352.94 K, 1000 kPa, x1 = 0.0142 | 777.66
352.94 K, 2000 kPa, x1 = 0.0018 | 757.24
352.94 K, 2000 kPa, x1 = 0.0112 | 774.02
352.94 K, 2000 kPa, x1 = 0.0142 | 778.69
352.94 K, 3000 kPa, x1 = 0.0018 | 758.3
352.94 K, 3000 kPa, x1 = 0.0112 | 775.24
352.94 K, 3000 kPa, x1 = 0.0142 | 779.72
352.94 K, 4000 kPa, x1 = 0.0018 | 759.35
352.94 K, 4000 kPa, x1 = 0.0112 | 776.07
352.94 K, 4000 kPa, x1 = 0.0142 | 780.73
352.94 K, 5000 kPa, x1 = 0.0018 | 760.39
352.94 K, 5000 kPa, x1 = 0.0112 | 777.15
352.94 K, 5000 kPa, x1 = 0.0142 | 781.74
352.94 K, 6000 kPa, x1 = 0.0018 | 761.42
352.94 K, 6000 kPa, x1 = 0.0112 | 778.1
352.94 K, 6000 kPa, x1 = 0.0142 | 782.74
352.94 K, 7000 kPa, x1 = 0.0018 | 762.46
352.94 K, 7000 kPa, x1 = 0.0112 | 779.1
352.94 K, 7000 kPa, x1 = 0.0142 | 783.74
352.94 K, 8000 kPa, x1 = 0.0018 | 763.48
352.94 K, 8000 kPa, x1 = 0.0112 | 780.11
352.94 K, 8000 kPa, x1 = 0.0142 | 784.73
352.94 K, 9000 kPa, x1 = 0.0018 | 764.5
352.94 K, 9000 kPa, x1 = 0.0112 | 781.09
352.94 K, 9000 kPa, x1 = 0.0142 | 785.73
352.94 K, 10000 kPa, x1 = 0.0018 | 765.51
352.94 K, 10000 kPa, x1 = 0.0112 | 782.07
352.94 K, 10000 kPa, x1 = 0.0142 | 786.7
352.94 K, 11000 kPa, x1 = 0.0018 | 766.51
352.94 K, 11000 kPa, x1 = 0.0112 | 783.04
352.94 K, 11000 kPa, x1 = 0.0142 | 787.66
352.94 K, 12000 kPa, x1 = 0.0018 | 767.49
352.94 K, 12000 kPa, x1 = 0.0112 | 784.02
352.94 K, 12000 kPa, x1 = 0.0142 | 788.61
352.94 K, 13000 kPa, x1 = 0.0018 | 768.45
352.94 K, 13000 kPa, x1 = 0.0112 | 784.98
352.94 K, 13000 kPa, x1 = 0.0142 | 789.57
352.94 K, 14000 kPa, x1 = 0.0018 | 769.42
352.94 K, 14000 kPa, x1 = 0.0112 | 785.8
352.94 K, 14000 kPa, x1 = 0.0142 | 790.48
352.94 K, 15000 kPa, x1 = 0.0018 | 770.37
352.94 K, 15000 kPa, x1 = 0.0112 | 786.85
352.94 K, 15000 kPa, x1 = 0.0142 | 791.41
352.94 K, 16000 kPa, x1 = 0.0018 | 771.31
352.94 K, 16000 kPa, x1 = 0.0112 | 787.79
352.94 K, 16000 kPa, x1 = 0.0142 | 792.32
352.94 K, 17000 kPa, x1 = 0.0018 | 772.22
352.94 K, 17000 kPa, x1 = 0.0112 | 788.61
